In patent US11998008B2, “Pesticides and methods of controlling pests” (The State of Israel, Ministry of Agriculture & Rural …, priority 2017, dated 2024):
Entries after “also recorded” stand apart in the source; their conditions may differ.

Experiments:
S. rolfsii = assay: Fungicidal activity assay on PDA in sealed Petri dish (growth inhibition and mortality); format: cell-based, Sclerotinia rolfsii; conditions: S. rolfsii; for I - Inhibition class: 2 days; for M - Mortality, minimal concentration that killed the fungus / MFC: NA + number = still viable in the highest concentration tested (given as >); for I - Inhibition, minimal concentration that inhibited the growth: concentration to which the class above belongs; for MFC: Agroathelia rolfsii, read-out: M - Mortality, minimal concentration that killed the fungus
Method: (§1) Each compound was placed on a disconnected cover from an Eppendorf tube that was located in the middle of the Petri dish and a hyphae-containing plug of each test fungus was added to the culture plate. In exemplary procedures, the tested compounds trans-2-heptenal, trans-2-octenal were tested in comparison with octanal, trans-2-octen-1-ol, methyl trans-2-octenoate, trans-3-octen-2-one and 3-pentenenitrile. In addition, cyclic ketones as 2-cyclopenten-1-one, 2-cyclohexen-1-one and α-tetralone were also examined. Then, the culture plate was sealed with parafilm and incubated at room-temperature for 2 days, after which the growth of the test fungi in those dishes was compared with those in the test compound-free control dishes. At the end of the assay, the viability of each test fungus was evaluated by transferring inoculum plugs to fresh PDA plates and observing the growth that developed within the next 2 days. The test fungi used in this study included but were not limited to Alternaria alternata, Botrytis cinerea, Sclerotinia rolfsii, Penicillium digitatum, Fusarium oxysporum f. sp. radicis-cucumerinum and Rhizoctonia solani.

[1] = test system: Meloidogyne javanica second stage juveniles (J2s); assay: Nematocidal activity: viability of J2 nematodes after 2 days exposure to the compound in a sealed box; conditions: in vivo
B. cinerea = assay: Fungicidal activity assay on PDA in sealed Petri dish (growth inhibition and mortality); format: cell-based, Botrytis cinerea; conditions: for I - Inhibition class: 2 days; for I - Inhibition, minimal concentration that inhibited the growth: concentration to which the class above belongs
Method: as §1, with “In exemplary procedures, the fungicidial activity of the compounds listed in Table 2 were examined by activity assays as follow: Petri dishes, 90 mm in diameter, with air volume of 80 mL, contained 10-12 mL of growth medium comprising potato dextrose agar (PDA) (Acumedia, Lansing, Michigan, USA) amended with tetracycline at 12 μg/mL. Each” for “Each”

P. digitatum = assay: as above; format: cell-based, Penicillium digitatum; conditions: for I - Inhibition class: 2 days; for I - Inhibition, minimal concentration that inhibited the growth: concentration to which the class above belongs
Method: as §1, with “In exemplary procedures, the fungicidial activity of the compounds listed in Table 2 were examined by activity assays as follow: Petri dishes, 90 mm in diameter, with air volume of 80 mL, contained 10-12 mL of growth medium comprising potato dextrose agar (PDA) (Acumedia, Lansing, Michigan, USA) amended with tetracycline at 12 μg/mL. Each” for “Each”

[2] = test system: Meloidogyne javanica second stage juveniles (J2s); assay: Nematocidal activity: viability of J2 nematodes after 2 days exposure to the compound in a sealed box; format: in vivo
Source text: In exemplary procedures, the sedentary root-knot nematode from the genus Meloidogyne javanica second stage juveniles (J2s) was propagated on greenhouse-grown nematode-susceptible tomato Lycopersicon esculentum cv. ‘Avigail 870’ (Hazera, Shikmim, Israel), and nematode eggs were bulk-extracted from the roots with 0.05% (v/v) sodium hypochlorite (NaOCl) followed by sucrose flotation and successive sievings through nylon filters of 300, 120, 60, and 30 μm mesh sizes (AD Sinun Technologies, Petach Tikvah, Israel). For hatching J2, extracted eggs were placed on 30-μm sieves (AD Sinun Technologies) in 0.01 M MES (2-(N-morpholino) ethanesulfonic acid hydrate) pH 6.5 buffer under aseptic conditions in darkness for 5 days, and hatching J2s were collected for further experiments.
Seven vials, each containing 300 J2 nematodes with 0.5 mL of 0.01 M 2-(N-morpholino)ethanesulfonic acid (MES) buffer, were exposed to cyclic ketone compounds in order to examine their nematocidal activity and reduction in viability. In addition, a humid environment in a sealed 1 L box was maintained by addition 5 ml of distilled H2O to a 50-mm Petri plate. The box was sealed after compound addition into each 50-mm Petri plate together with 5-250 mg of perlite particles and incubated for 2 days in the dark at 25±1° C. C5 and C6 saturated and α,β-unsaturated cyclic ketones were tested for their nematocidal activity. The J2 nematodes viability was examined following exposure to the cyclic ketone compounds, by a straightforward small-scale nematode extraction method, based on the traditional Baermann funnel method. Briefly, all nematode suspensions were loaded onto 30-μm (AD Sinun Technologies) filters (1.0-1.5 cm height, 1.1-2.0 cm^3 internal area), and the nematodes were washed twice with 300 μL of 0.01 M MES buffer in order to remove any residues. Then, filters holding nematodes were placed into 15 mL Falcon centrifuge tubes, each containing 900 μL of 0.01 M of MES buffer. These filters allow active passage of only living J2s while paralyzed or dead nematodes remain on top of the filter. The whole apparatus including the filter holding the nematodes and the Falcon tubes were placed in the dark for 3 h at 25±1° C. Then, the filters were removed and the viable nematodes, which were able to actively cross the filter toward the 0.01 M of MES buffer, were collected from the Falcon tube and counted using a Nematode Counting Slide (Chalex LLC, Portland, OR, USA) and a SV11 stereomicroscope (Zeiss, Jena, Germany).
Data were analyzed by the JMP 12 software package (SAS Inc., Cary, NC, USA). Mean numbers of viable J2s under various conditions were subjected to one-way analysis of variance (ANOVA), followed by the Tukey-Kramer multiple comparison test, with significance set at P<0.05.

A. alternata = assay: Fungicidal activity assay on PDA in sealed Petri dish (growth inhibition and mortality); format: cell-based, Alternaria alternata; conditions: for I - Inhibition class: 2 days; for I - Inhibition, minimal concentration that inhibited the growth: concentration to which the class above belongs
Method: as §1, with “In exemplary procedures, the fungicidial activity of the compounds listed in Table 2 were examined by activity assays as follow: Petri dishes, 90 mm in diameter, with air volume of 80 mL, contained 10-12 mL of growth medium comprising potato dextrose agar (PDA) (Acumedia, Lansing, Michigan, USA) amended with tetracycline at 12 μg/mL. Each” for “Each”

Tomato plants = assay: Phytotoxicity on tomato plants in soil, compound on perlite particles; format: in vivo; conditions: one day after treatment
Source text: In exemplary procedures, the phytotixicity of trans-2-octenal and 2-cyclopenten-1-one was examined in triplicates for each concentration: 250, 1,000, 4,000, and 20,000 ppm compared to control.

[3] = test system: F. oxysporum f. sp. radicis-cucumerium; assay: Fungicidal activity assay on PDA in sealed Petri dish (growth inhibition and mortality); format: cell-based, Fusarium oxysporum f. sp. radicis-cucumerinum; conditions: for MFC: Fusarium oxysporum, read-out: M - Mortality, minimal concentration that killed the fungus; for MFC / M - Mortality, minimal concentration that killed the fungus: NA + number = still viable in the highest concentration tested (given as >); for I - Inhibition class: 2 days; for I - Inhibition, minimal concentration that inhibited the growth: concentration to which the class above belongs
Method: as §1

test fungi = assay: Fungicidal activity assay on PDA, summaries over the test fungi; format: cell-based; conditions: comparison within the series
Method: as §1, with “In exemplary procedures, the fungicidial activity of the compounds listed in Table 2 were examined by activity assays as follow: Petri dishes, 90 mm in diameter, with air volume of 80 mL, contained 10-12 mL of growth medium comprising potato dextrose agar (PDA) (Acumedia, Lansing, Michigan, USA) amended with tetracycline at 12 μg/mL. Each” for “Each”

R. solani = assay: microbe, parasite or virus in culture; format: cell-based; conditions: R. solani; for MFC: Rhizoctonia solani, read-out: M - Mortality, minimal concentration that killed the fungus; for MFC / M - Mortality, minimal concentration that killed the fungus: NA + number = still viable in the highest concentration tested (given as >); for I - Inhibition class: 2 days; for I - Inhibition, minimal concentration that inhibited the growth: concentration to which the class above belongs
Method: as §1

[4] = NA + number = still viable in the highest concentration tested (given as >)
[5] = at the concentration given, 2 days incubation

CC(C)=CCCC(C)=CCCC(C)=CC=O (single isomer, unassigned) [Farnesal mixture of isomers, Farnesal]
I - Inhibition class (S. rolfsii): MI (Medium inhibition - 76-99% of growth inhibition)
M - Mortality, minimal concentration that killed the fungus (S. rolfsii): > 125 ppm
I - Inhibition, minimal concentration that inhibited the growth (S. rolfsii): 125 ppm
Activity: the most effective concentration [1]: N 250 ppm
I - Inhibition class (B. cinerea): MI (Medium inhibition - 76-99% of growth inhibition)
M - Mortality, minimal concentration that killed the fungus (B. cinerea; [4]): > 125 ppm
I - Inhibition, minimal concentration that inhibited the growth (B. cinerea): 12.5 ppm
I - Inhibition class (P. digitatum): NI (<50% growth inhibition)
M - Mortality, minimal concentration that killed the fungus (P. digitatum; [4]): > 125 ppm
I - Inhibition, minimal concentration that inhibited the growth (P. digitatum): 125 ppm
Activity: reduction in J2s viability relative to non exposed control J2s (class) [2, 5]: N (<50% reduction in viability)
I - Inhibition class (A. alternata): NI (<50% growth inhibition)
M - Mortality, minimal concentration that killed the fungus (A. alternata; [4]): > 125 ppm
I - Inhibition, minimal concentration that inhibited the growth (A. alternata): 125 ppm

O=C1C=CCC1 [2-cyclopenten-1-one]
MFC (S. rolfsii): > 25 µg/mL
phytotoxicity (Tomato plants; 250 ppm): No phytotoxicity
phytotoxicity (Tomato plants; 1,000 ppm): phytotoxic; also recorded: Low phytotoxicity
phytotoxicity (Tomato plants; 4,000 ppm): phytotoxic; also recorded: Medium phytotoxicity
phytotoxicity (Tomato plants; 20,000 ppm): phytotoxic; also recorded: Strong phytotoxicity
MFC [3]: > 25 µg/mL
fungicidal activity in words (test fungi): fungicidal activity, to some extent
MFC (R. solani): > 25 µg/mL

O=C1CCCCCC1 [Cycloheptanone]
MFC (S. rolfsii): 2500 µg/mL
MFC (B. cinerea; Botrytis cinerea, NA + number = still viable in the highest concentration tested (given as >), read-out: M - Mortality, minimal concentration that killed the fungus): 1250 µg/mL
MFC (P. digitatum; Penicillium digitatum, NA + number = still viable in the highest concentration tested (given as >), read-out: M - Mortality, minimal concentration that killed the fungus): 2500 µg/mL
MFC [3]: > 250 µg/mL
MFC (R. solani): > 250 µg/mL
nematocidal activity in words ([2]; comparison within the series): nematocidal effects at substantially higher concentrations
MFC (A. alternata; Alternaria alternata, NA + number = still viable in the highest concentration tested (given as >), read-out: M - Mortality, minimal concentration that killed the fungus): 1250 µg/mL

C/C=C(\C)C=O [Tiglic aldehyde]
I - Inhibition class (S. rolfsii): MI (Medium inhibition - 76-99% of growth inhibition)
M - Mortality, minimal concentration that killed the fungus (S. rolfsii): > 25 ppm
I - Inhibition, minimal concentration that inhibited the growth (S. rolfsii): 25 ppm
Activity: the most effective concentration [1]: M 25 ppm
I - Inhibition class [3]: NI (<50% growth inhibition)
M - Mortality, minimal concentration that killed the fungus [3]: > 25 ppm
I - Inhibition, minimal concentration that inhibited the growth [3]: 25 ppm
I - Inhibition class (R. solani): MI (Medium inhibition - 76-99% of growth inhibition)
M - Mortality, minimal concentration that killed the fungus (R. solani): > 25 ppm
I - Inhibition, minimal concentration that inhibited the growth (R. solani): 25 ppm
Activity: reduction in J2s viability relative to non exposed control J2s (class) [2, 5]: M (76-90% reduction in viability)

O=C1CCCc2ccccc21 [α-Tetralone]
I - Inhibition class (S. rolfsii): NI (<50% growth inhibition)
M - Mortality, minimal concentration that killed the fungus (S. rolfsii): > 25 ppm
I - Inhibition, minimal concentration that inhibited the growth (S. rolfsii): 25 ppm
I - Inhibition class [3]: NI (<50% growth inhibition)
M - Mortality, minimal concentration that killed the fungus [3]: > 25 ppm
I - Inhibition, minimal concentration that inhibited the growth [3]: 25 ppm
fungicidal activity in words (test fungi): further reduced fungicidal activity
I - Inhibition class (R. solani): NI (<50% growth inhibition)
M - Mortality, minimal concentration that killed the fungus (R. solani): > 25 ppm
I - Inhibition, minimal concentration that inhibited the growth (R. solani): 25 ppm
Activity: the most effective concentration ([2]; concentration to which the class of the same cell belongs): 25 ppm

CC(=O)/C=C/C1C(C)=CCCC1(C)C (stereo not drawn) [α-ionone]
I - Inhibition class (S. rolfsii): LI (Low inhibition - 51-75% of growth inhibition compared to control.)
M - Mortality, minimal concentration that killed the fungus (S. rolfsii): > 1250 ppm
I - Inhibition, minimal concentration that inhibited the growth (S. rolfsii): 1250 ppm
Activity: the most effective concentration [1]: N 250 ppm
I - Inhibition class (B. cinerea): LI (Low inhibition - 51-75% of growth inhibition compared to control.)
M - Mortality, minimal concentration that killed the fungus (B. cinerea; [4]): > 1250 ppm
I - Inhibition, minimal concentration that inhibited the growth (B. cinerea): 1250 ppm
I - Inhibition class (P. digitatum): NI (<50% growth inhibition)
M - Mortality, minimal concentration that killed the fungus (P. digitatum; [4]): > 1250 ppm
I - Inhibition, minimal concentration that inhibited the growth (P. digitatum): 1250 ppm
Activity: reduction in J2s viability relative to non exposed control J2s (class) ([2]; in vivo): N 250 (key: S: >90% reduction in viability; M: 76-90% reduction in viability; L: 51-75% reduction in viability; N: <50% reduction in viability)
I - Inhibition class (A. alternata): LI (Low inhibition - 51-75% of growth inhibition compared to control.)
M - Mortality, minimal concentration that killed the fungus (A. alternata; [4]): > 1250 ppm
I - Inhibition, minimal concentration that inhibited the growth (A. alternata): 1250 ppm
